Measured values as given in patent US20160311831A1, “Imidazotriazinones as PDE1 Inhibitors” (H. Lundbeck A/S, priority 2015, published 2016).

Legend:
Assay type in all cases: biochemical
PDE1B = PDE1B (Homo sapiens, UniProt Q01064); assay: PDE1 inhibition assay (PDE1B), SPA with tritium labelled cAMP; details: 15 nM tritium labelled cAMP, 1 hr at room temperature
Protocol: (§1) PDE1A, PDE1B and PDE1C assays were performed as follows: the assays was performed in 60 μL samples containing a fixed amount of the PDE1 enzym1 (sufficient to convert 20-25% of the cyclic nucleotide substrate), a buffer (50 mM HEPES pH 7.6; 10 mM MgCl2; 0.02% Tween20), 0.1 mg/mL BSA, 15 nM tritium labelled cAMP and varying amounts of inhibitors. Reactions were initiated by addition of the cyclic nucleotide substrate, and reactions were allowed to proceed for 1 hr at room temperature before being terminated through mixing with 20 μL (0.2 mg) yttrium silicate SPA beads (PerkinElmer). The beads were allowed to settle for 1 hr in the dark before the plates were counted in a Wallac 1450 Microbeta counter. The measured signals were converted to activity relative to an uninhibited control (100%) and IC50 values were calculated using XIFit (model 205, IDBS).

PDE9 = PDE9 (Homo sapiens, UniProt O76083); assay: PDE9 inhibition assay, SPA with 3H-cAMP; details: compound at 10 microM; 10 nM 3H-cAMP, 1 hr incubation
Protocol: A PDE9 assay may for example, be performed as follows: The assay is performed in 60 μL samples containing a fixed amount of the relevant PDE enzyme (sufficient to convert 20-25% of the cyclic nucleotide substrate), a buffer (50 mM HEPES7.6; 10 mM MgCl2; 0.02% Tween20), 0.1 mg/mL BSA, 225 pCi of ^3H-labelled cyclic nucleotide substrate, tritium labeled cAMP to a final concentration of 5 nM and varying amounts of inhibitors. Reactions are initiated by addition of the cyclic nucleotide substrate, and reactions are allowed to proceed for one hr at room temperature before being terminated through mixing with 15 μL 8 mg/mL yttrium silicate SPA beads (Amersham). The beads are allowed to settle for one hr in the dark before the plates are counted in a Wallac 1450 Microbeta counter. The measured signal can be converted to activity relative to an uninhibited control (100%) and IC50 values can be calculated using the Xlfit extension to EXCEL.
In the context of the present invention the assay was performed in 60 uL assay buffer (50 mM HEPES pH 7.6; 10 mM MgCl2; 0.02% Tween20) containing enough PDE9 to convert 20-25% of 10 nM ^3H-cAMP and varying amounts of inhibitors. Following a 1 hr incubation the reactions were terminated by addition of 15 uL 8 mg/mL yttrium silicate SPA beads (Amersham). The beads were allowed to settle for one hr in the dark before the plates were counted in a Wallac 1450 Microbeta counter.

PDE1C = PDE1C (Homo sapiens, UniProt Q14123); assay: PDE1 inhibition assay (PDE1C), SPA with tritium labelled cAMP; details: 15 nM tritium labelled cAMP, 1 hr at room temperature
Protocol: as §1

PDE1A = PDE1A (Homo sapiens, UniProt P54750); assay: PDE1 inhibition assay (PDE1A), SPA with tritium labelled cAMP; details: 15 nM tritium labelled cAMP, 1 hr at room temperature
Protocol: as §1

Sequence of PDE1A (P54750 whole entry): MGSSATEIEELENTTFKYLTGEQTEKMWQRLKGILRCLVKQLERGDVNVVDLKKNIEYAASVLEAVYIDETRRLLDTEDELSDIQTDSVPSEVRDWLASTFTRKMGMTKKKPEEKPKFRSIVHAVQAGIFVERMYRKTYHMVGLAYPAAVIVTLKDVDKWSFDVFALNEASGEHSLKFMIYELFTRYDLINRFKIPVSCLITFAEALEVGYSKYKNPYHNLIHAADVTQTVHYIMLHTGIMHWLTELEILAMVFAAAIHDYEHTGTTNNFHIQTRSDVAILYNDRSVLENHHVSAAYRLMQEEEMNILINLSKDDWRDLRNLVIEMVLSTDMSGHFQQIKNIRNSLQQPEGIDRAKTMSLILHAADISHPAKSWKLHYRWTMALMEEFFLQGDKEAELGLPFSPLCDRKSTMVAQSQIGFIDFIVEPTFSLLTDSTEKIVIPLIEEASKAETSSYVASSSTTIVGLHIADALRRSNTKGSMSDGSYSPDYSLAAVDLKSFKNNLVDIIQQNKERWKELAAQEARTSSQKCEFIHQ
Sequence of PDE1C (Q14123 whole entry): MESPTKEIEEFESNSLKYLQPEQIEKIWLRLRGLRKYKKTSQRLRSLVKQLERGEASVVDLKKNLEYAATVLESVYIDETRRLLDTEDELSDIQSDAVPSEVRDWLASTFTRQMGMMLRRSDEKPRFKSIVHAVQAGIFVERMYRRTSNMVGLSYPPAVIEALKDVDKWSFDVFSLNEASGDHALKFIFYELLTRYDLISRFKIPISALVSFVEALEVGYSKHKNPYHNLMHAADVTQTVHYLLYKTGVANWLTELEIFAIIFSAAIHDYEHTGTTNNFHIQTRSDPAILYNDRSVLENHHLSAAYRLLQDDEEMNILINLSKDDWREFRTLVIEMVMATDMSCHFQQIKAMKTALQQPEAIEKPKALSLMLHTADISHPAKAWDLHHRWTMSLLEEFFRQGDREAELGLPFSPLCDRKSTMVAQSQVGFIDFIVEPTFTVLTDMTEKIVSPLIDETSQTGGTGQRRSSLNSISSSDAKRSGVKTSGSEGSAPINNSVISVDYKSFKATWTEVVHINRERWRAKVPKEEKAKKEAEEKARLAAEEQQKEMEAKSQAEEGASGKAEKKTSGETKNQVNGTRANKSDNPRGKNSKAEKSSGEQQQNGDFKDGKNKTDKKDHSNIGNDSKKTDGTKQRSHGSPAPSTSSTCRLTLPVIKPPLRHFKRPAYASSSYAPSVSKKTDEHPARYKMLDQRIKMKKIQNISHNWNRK
Sequence of PDE1B (Q01064 whole entry): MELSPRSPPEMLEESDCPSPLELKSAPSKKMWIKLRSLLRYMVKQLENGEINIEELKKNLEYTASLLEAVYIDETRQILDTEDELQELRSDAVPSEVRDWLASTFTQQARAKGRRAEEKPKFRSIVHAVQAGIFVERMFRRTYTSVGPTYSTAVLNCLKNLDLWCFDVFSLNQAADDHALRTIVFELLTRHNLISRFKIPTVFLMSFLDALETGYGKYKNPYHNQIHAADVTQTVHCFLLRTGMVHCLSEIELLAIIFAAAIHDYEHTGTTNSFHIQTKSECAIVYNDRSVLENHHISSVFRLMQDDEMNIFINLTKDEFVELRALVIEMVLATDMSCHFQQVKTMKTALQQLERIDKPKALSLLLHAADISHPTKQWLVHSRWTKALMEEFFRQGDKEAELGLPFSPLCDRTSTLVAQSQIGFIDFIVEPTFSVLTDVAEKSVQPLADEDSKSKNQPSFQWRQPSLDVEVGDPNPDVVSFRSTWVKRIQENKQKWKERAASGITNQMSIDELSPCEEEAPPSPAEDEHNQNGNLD
Sequence of PDE9 (O76083 whole entry): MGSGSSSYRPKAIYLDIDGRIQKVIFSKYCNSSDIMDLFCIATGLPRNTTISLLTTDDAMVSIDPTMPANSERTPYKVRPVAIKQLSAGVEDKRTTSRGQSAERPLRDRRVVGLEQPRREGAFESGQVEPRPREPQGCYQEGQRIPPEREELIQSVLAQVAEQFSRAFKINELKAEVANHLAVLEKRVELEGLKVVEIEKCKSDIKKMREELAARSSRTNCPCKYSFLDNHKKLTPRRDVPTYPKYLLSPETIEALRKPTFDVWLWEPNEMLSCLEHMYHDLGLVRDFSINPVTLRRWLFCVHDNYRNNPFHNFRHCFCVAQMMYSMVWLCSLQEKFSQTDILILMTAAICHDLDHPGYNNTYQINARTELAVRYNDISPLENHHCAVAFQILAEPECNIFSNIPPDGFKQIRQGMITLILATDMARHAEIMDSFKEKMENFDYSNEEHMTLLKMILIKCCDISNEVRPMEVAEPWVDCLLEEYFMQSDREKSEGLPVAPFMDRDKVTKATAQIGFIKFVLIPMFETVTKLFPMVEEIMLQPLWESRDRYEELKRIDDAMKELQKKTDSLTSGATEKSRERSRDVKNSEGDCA

| SMILES | IC50 (PDE1B) [nM] | inhibition at 10 µM (PDE9) [%] | IC50 (PDE1C) [nM] | IC50 (PDE1A) [nM] | % inhibition of PDE9 at 10 microM (PDE9) [%] |
| --- | --- | --- | --- | --- | --- |
| Cc1ccc(Cc2nn3c(C4CCOCC4)ncc3c(=O)n2CC2CCCCC2)cc1 [Example 7, 3-(Cyclohexylmethyl)-2-(4-methylbenzyl)-7-(tetrahydro-2H-pyran-4-yl)imidazo[5,1-f][1,2,4]triazin-4(3H)-one] | 26 | 11 | 11 | 40 |  |
| Cc1ccc(Cc2nn3c(C4CCOCC4)ncc3c(=O)n2CC2CCOC2)cc1 (single isomer, unassigned) [12 Stereoisomer 1] | 258 |  | 105 |  | 3 |
| CCCn1c(Cc2ccc(C)cc2)nn2c(C3CCOCC3)ncc2c1=O [Example 4, 2-(4-Methylbenzyl)-3-propyl-7-(tetrahydro-2H-pyran-4-yl)imidazo[5,1-f][1,2,4]triazin-4(3H)-one] | 40 | 9 | 61 | 83 |  |
| Cc1ccc(Cc2nn3c(C4CCOCC4)ncc3c(=O)n2CC2CC2)cc1 [Example 8, 3-(Cyclopropylmethyl)-2-(4-methylbenzyl)-7-(tetrahydro-2H-pyran-4-yl)imidazo[5,1-f][1,2,4]triazin-4(3H)-one] | 103 | 9 | 78 | 63 |  |
| CCn1c(Cc2ccc(C)cc2)nn2c(C3CCOCC3)ncc2c1=O [Example 3, 3-Ethyl-2-(4-methylbenzyl)-7-(tetrahydro-2H-pyran-4-yl)imidazo[5,1-f][1,2,4]triazin-4(3H)-one] | 79 | 15 | 279 | 180 |  |
| Cc1ccc(Cc2nn3c(C4CCOCC4)ncc3c(=O)n2CC2CCC(C)CC2)cc1 (single isomer, unassigned) [11 Stereoisomer 1] | 33 |  | 69 | 43 | −9 |
| Cc1nn2c(C3CCOCC3)ncc2c(=O)n1CC1CCCCC1 [Example 1, 3-(Cyclohexylmethyl)-2-methyl-7-(tetrahydro-2H-pyran-4-yl)imidazo[5,1-f][1,2,4]triazin-4(3H)-one] | 30 | 26 | 9 | 15 |  |
| Cc1ccc(Cc2nn3c(C4CCOCC4)ncc3c(=O)n2CC2CCCC2)cc1 [Example 6, 3-(Cyclopentylmethyl)-2-(4-methylbenzyl)-7-(tetrahydro-2H-pyran-4-yl)imidazo[5,1-f][1,2,4]triazin-4(3H)-one] | 63 | 2 | 4 | 29 |  |
| Cc1ccc(Cc2nn3c(C4CCOCC4)ncc3c(=O)n2CC2CCOC2)cc1 (single isomer, unassigned) [12 Stereoisomer 2] | 67 |  | 151 | 100 | 7 |
| Cc1ccc(Cc2nn3c(C4CCOCC4)ncc3c(=O)n2CC2CCC(C)CC2)cc1 (single isomer, unassigned) [11 Stereoisomer 2] | 10 |  | 5 | 8 | 15 |
| Cc1nn2c(C3CCOCC3)ncc2c(=O)n1Cc1cccc(F)c1 [Example 13, 3-(3-Fluorobenzyl)-2-methyl-7-(tetrahydro-2H-pyran-4-yl)imidazo[5,1-f][1,2,4]triazin-4(3H)-one] | 258 | -4 | 29 | 127 |  |
| Cc1ccc(Cc2nn3c(C4CCOCC4)ncc3c(=O)n2CC2CCOCC2)cc1 [Example 9, 2-(4-Methylbenzyl)-7-(tetrahydro-2H-pyran-4-yl)-3-((tetrahydro-2H-pyran-4-yl)methyl)imidazo[5,1-f][1,2,4]triazin-4(3H)-one] | 364 | 12 | 23 | 583 |  |

More lines, now with the values ahead:

| IC50 (PDE1B) [nM] | inhibition at 10 µM (PDE9) [%] | IC50 (PDE1C) [nM] | IC50 (PDE1A) [nM] | % inhibition of PDE9 at 10 microM (PDE9) [%] | SMILES |
| --- | --- | --- | --- | --- | --- |
| 162 | -13 | 17 | 70 |  | Cc1nn2c(C3CCOCC3)ncc2c(=O)n1Cc1ccccc1 [Example 15, 3-Benzyl-2-methyl-7-(tetrahydro-2H-pyran-4-yl)imidazo[5,1-f][1,2,4]triazin-4(3H)-one] |
| 454 | 13 | 37 | 367 |  | Cc1ccccc1Cn1c(C)nn2c(C3CCOCC3)ncc2c1=O [Example 21, 2-Methyl-3-(2-methylbenzyl)-7-(tetrahydro-2H-pyran-4-yl)imidazo[5,1-f][1,2,4]triazin-4(3H)-one] |
| 376 | 8 | 103 | 554 |  | O=c1c2cnc(C3CCOCC3)n2ncn1CC1CCCCC1 [Example 26, 3-(Cyclohexylmethyl)-7-(tetrahydro-2H-pyran-4-yl)imidazo[5,1-f][1,2,4]triazin-4(3H)-one] |
| 26 | -4 | 21 | 29 |  | COc1ccc(Cn2c(C)nn3c(C4CCOCC4)ncc3c2=O)cc1 [Example 23, 3-(4-Methoxybenzyl)-2-methyl-7-(tetrahydro-2H-pyran-4-yl)imidazo[5,1-f][1,2,4]triazin-4(3H)-one] |
| 66 | 18 | 77 | 58 |  | Cc1ccc(Cn2c(C)nn3c(C4CCOCC4)ncc3c2=O)cc1 [Example 22, 2-Methyl-3-(4-methylbenzyl)-7-(tetrahydro-2H-pyran-4-yl)imidazo[5,1-f][1,2,4]triazin-4(3H)-one] |
| 159 | 5 | 14 | 63 |  | Cc1nn2c(C3CCOCC3)ncc2c(=O)n1Cc1cccc(Cl)c1 [Example 17, 3-(3-Chlorobenzyl)-2-methyl-7-(tetrahydro-2H-pyran-4-yl)imidazo[5,1-f][1,2,4]triazin-4(3H)-one] |
| 61 | -11 | 104 | 35 |  | Cc1nn2c(C3CCOCC3)ncc2c(=O)n1Cc1ccc(Cl)cc1 [Example 24, 3-(4-Chlorobenzyl)-2-methyl-7-(tetrahydro-2H-pyran-4-yl)imidazo[5,1-f][1,2,4]triazin-4(3H)-one] |
| 139 | 21 | 15 | 54 |  | Cc1nn2c(C3CCOCC3)ncc2c(=O)n1Cc1ccccc1F [Example 20, 3-(2-Fluorobenzyl)-2-methyl-7-(tetrahydro-2H-pyran-4-yl)imidazo[5,1-f][1,2,4]triazin-4(3H)-one] |
| 220 | 11 | 20 | 118 |  | Cc1nn2c(C3CCOCC3)ncc2c(=O)n1Cc1ccccc1Cl [Example 16, 3-(2-Chlorobenzyl)-2-methyl-7-(tetrahydro-2H-pyran-4-yl)imidazo[5,1-f][1,2,4]triazin-4(3H)-one] |
| 188 | -30 | 20 | 265 |  | Cc1cccc(Cn2c(C)nn3c(C4CCOCC4)ncc3c2=O)c1 [Example 18, 2-Methyl-3-(3-methylbenzyl)-7-(tetrahydro-2H-pyran-4-yl)imidazo[5,1-f][1,2,4]triazin-4(3H)-one] |
| 131 | 8 | 15 | 52 |  | CCc1nn2c(C3CCOCC3)ncc2c(=O)n1Cc1cccc(F)c1 [Example 25, 2-Ethyl-3-(3-fluorobenzyl)-7-(tetrahydro-2H-pyran-4-yl)imidazo[5,1-f][1,2,4]triazin-4(3H)-one] |
| 134 | 18 | 35 | 77 |  | Cc1nn2c(C3CCOCC3)ncc2c(=O)n1Cc1ccc(F)cc1 [Example 14, 3-(4-Fluorobenzyl)-2-methyl-7-(tetrahydro-2H-pyran-4-yl)imidazo[5,1-f][1,2,4]triazin-4(3H)-one] |
|  | 17 | 436 |  |  | O=c1c2cnc(C3CCOCC3)n2ncn1Cc1cccc(F)c1 [Example 27, 3-(3-Fluorobenzyl)-7-(tetrahydro-2H-pyran-4-yl)imidazo[5,1-f][1,2,4]triazin-4(3H)-one] |
|  | 10 | 86 |  |  | O=c1c2cnc(C3CCOCC3)n2ncn1CC1CCCC1 [Example 28, 3-(Cyclopentylmethyl)-7-(tetrahydro-2H-pyran-4-yl)imidazo[5,1-f][1,2,4]triazin-4(3H)-one] |
